Results published in ChEMBL document CHEMBL5257023, “Identification of leads for antiproliferative activity on MDA-MB-435 human breast cancer cells through pharmacophore and CYP1A1-mediated metabolism” (Eur J Med Chem, 2016).

Experiments:
[1] = system: MDA-MB-468; assay: Anticancer activity against human MDA-MB-468 cells assessed as inhibition of cell growth incubated for 48 hrs by SRB assay; type: functional; details: for CC50: read-out: LC50 (the source's name)
[2] = system: MCF7; assay: Anticancer activity against human MCF7 cells assessed as inhibition of cell growth incubated for 48 hrs by SRB assay; type: functional; details: for CC50: read-out: LC50 (the source's name)
[3] = system: MDA-MB-435; assay: Anticancer activity against human MDA-MB-435 cells assessed as inhibition of cell growth incubated for 48 hrs by SRB assay; type: functional
[4] = system: NCI-H226; assay: Anticancer activity against human NCI-H226 cells assessed as inhibition of cell growth incubated for 48 hrs by SRB assay; type: functional
[5] = system: MDA-MB-468; assay: Anticancer activity against human MDA-MB-468 cells assessed as cell growth at 0.1 uM incubated for 48 hrs by SRB assay; type: functional; details: read-out: Activity
[6] = system: MDA-MB-468; assay: Anticancer activity against human MDA-MB-468 cells assessed as cell growth at 1 uM incubated for 48 hrs by SRB assay; type: functional; details: read-out: Activity
[7] = system: MDA-MB-468; assay: Anticancer activity against human MDA-MB-468 cells assessed as cell growth at 10 uM incubated for 48 hrs by SRB assay; type: functional; details: read-out: Activity
[8] = system: MDA-MB-468; assay: Anticancer activity against human MDA-MB-468 cells assessed as cell growth at 100 uM incubated for 48 hrs by SRB assay; type: functional; details: read-out: Activity
[9] = system: MCF7; assay: Anticancer activity against human MCF7 cells assessed as cell growth at 0.1 uM incubated for 48 hrs by SRB assay; type: functional; details: read-out: Activity
[10] = system: MCF7; assay: Anticancer activity against human MCF7 cells assessed as cell growth at 1 uM incubated for 48 hrs by SRB assay; type: functional; details: read-out: Activity
[11] = system: MCF7; assay: Anticancer activity against human MCF7 cells assessed as cell growth at 10 uM incubated for 48 hrs by SRB assay; type: functional; details: read-out: Activity
[12] = system: MCF7; assay: Anticancer activity against human MCF7 cells assessed as cell growth at 100 uM incubated for 48 hrs by SRB assay; type: functional; details: read-out: Activity
[13] = system: NCI-H226; assay: Anticancer activity against human NCI-H226 cells assessed as cell growth at 0.1 uM incubated for 48 hrs by SRB assay; type: functional; details: read-out: Activity
[14] = system: NCI-H226; assay: Anticancer activity against human NCI-H226 cells assessed as cell growth at 1 uM incubated for 48 hrs by SRB assay; type: functional; details: read-out: Activity
[15] = system: NCI-H226; assay: Anticancer activity against human NCI-H226 cells assessed as cell growth at 10 uM incubated for 48 hrs by SRB assay; type: functional; details: read-out: Activity
[16] = system: NCI-H226; assay: Anticancer activity against human NCI-H226 cells assessed as cell growth at 100 uM incubated for 48 hrs by SRB assay; type: functional; details: read-out: Activity
[17] = system: MDA-MB-435; assay: Anticancer activity against human MDA-MB-435 cells assessed as cell growth at 0.1 uM incubated for 48 hrs by SRB assay; type: functional; details: read-out: Activity
[18] = system: MDA-MB-435; assay: Anticancer activity against human MDA-MB-435 cells assessed as cell growth at 1 uM incubated for 48 hrs by SRB assay; type: functional; details: read-out: Activity
[19] = system: MDA-MB-435; assay: Anticancer activity against human MDA-MB-435 cells assessed as cell growth at 10 uM incubated for 48 hrs by SRB assay; type: functional; details: read-out: Activity
[20] = system: MDA-MB-435; assay: Anticancer activity against human MDA-MB-435 cells assessed as cell growth at 100 uM incubated for 48 hrs by SRB assay; type: functional; details: read-out: Activity
[21] = biological target: T1, CYP1A1 (Homo sapiens, UniProt P04798); assay: Inhibition of recombinant CYP1A1 (unknown origin) assessed as residual enzyme activity using 7-ethoxyresorufin as substrate at 0.01 uM incubated for 15 mins by resorufin dye based spectrofluorimetry (reference value: 100%); type: ADME; details: recombinant CYP1A1, probe 7-ethoxyresorufin, read-out: Activity
T1 sequence (P04798 whole entry): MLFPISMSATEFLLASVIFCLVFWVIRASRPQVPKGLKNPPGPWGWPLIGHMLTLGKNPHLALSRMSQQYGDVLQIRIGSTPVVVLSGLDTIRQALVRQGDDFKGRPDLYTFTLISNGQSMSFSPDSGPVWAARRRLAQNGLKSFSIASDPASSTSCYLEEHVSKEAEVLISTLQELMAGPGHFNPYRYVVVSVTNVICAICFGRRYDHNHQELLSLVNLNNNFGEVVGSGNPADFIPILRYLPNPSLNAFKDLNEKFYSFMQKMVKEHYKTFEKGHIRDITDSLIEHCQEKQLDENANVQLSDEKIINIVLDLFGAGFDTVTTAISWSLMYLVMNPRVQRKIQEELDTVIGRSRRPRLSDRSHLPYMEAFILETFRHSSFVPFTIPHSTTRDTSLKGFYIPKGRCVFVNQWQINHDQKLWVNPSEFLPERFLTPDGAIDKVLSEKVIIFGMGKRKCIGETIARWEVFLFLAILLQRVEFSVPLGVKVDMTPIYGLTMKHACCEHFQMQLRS

[22] = biological target: T1, CYP1A1; assay: Inhibition of recombinant CYP1A1 (unknown origin) assessed as residual enzyme activity using 7-ethoxyresorufin as substrate at 0.1 uM incubated for 15 mins by resorufin dye based spectrofluorimetry (reference value: 100%); type: ADME; details: recombinant CYP1A1, probe 7-ethoxyresorufin, read-out: Activity
[23] = biological target: T1, CYP1A1; assay: Inhibition of recombinant CYP1A1 (unknown origin) assessed as residual enzyme activity using 7-ethoxyresorufin as substrate at 1 uM incubated for 15 mins by resorufin dye based spectrofluorimetry (reference value: 100%); type: ADME; details: recombinant CYP1A1, probe 7-ethoxyresorufin, read-out: Activity
[24] = biological target: T1, CYP1A1; assay: Inhibition of recombinant CYP1A1 (unknown origin) assessed as residual enzyme activity using 7-ethoxyresorufin as substrate at 10 uM incubated for 15 mins by resorufin dye based spectrofluorimetry (reference value: 100%); type: ADME; details: recombinant CYP1A1, probe 7-ethoxyresorufin, read-out: Activity
[25] = biological target: T1, CYP1A1; assay: Inhibition of recombinant CYP1A1 (unknown origin) assessed as residual enzyme activity using 7-ethoxyresorufin as substrate at 50 uM incubated for 15 mins by resorufin dye based spectrofluorimetry (reference value: 100%); type: ADME; details: recombinant CYP1A1, probe 7-ethoxyresorufin, read-out: Activity
[26] = biological target: T1, CYP1A1; assay: Inhibition of recombinant CYP1A1 (unknown origin) assessed as residual enzyme activity using 7-ethoxyresorufin as substrate at 100 uM incubated for 15 mins by resorufin dye based spectrofluorimetry (reference value: 100%); type: ADME; details: recombinant CYP1A1, probe 7-ethoxyresorufin, read-out: Activity
[27] = biological target: T2, Cytochrome P450 1A1 (Homo sapiens, UniProt P04798); assay: Inhibition of recombinant CYP1A1 (unknown origin) assessed as decrease in EROD activity using 7-ethoxyresorufin as substrate upto 100 uM incubated for 15 mins by resorufin dye based spectrofluorimetry; type: ADME; details: recombinant enzyme, 0.25 h
T2 sequence (P04798 whole entry): T1 sequence (P04798 whole entry)

[28] = biological target: T2, Cytochrome P450 1A1; assay: Inhibition of recombinant CYP1A1 (unknown origin) assessed as decrease in EROD activity using 7-ethoxyresorufin as substrate incubated for 15 mins by resorufin dye based spectrofluorimetry; type: ADME

| Structure (SMILES) | GI50 [1] [µM] | TGI [1] [µM] | CC50 [1] [µM] | GI50 [2] [µM] | TGI [2] [µM] | CC50 [2] [µM] | GI50 [3] [µM] | LC50 [3] [µM] | TGI [3] [µM] | GI50 [4] [µM] | LC50 (concentration killing 50% of cells) [4] [µM] | TGI [4] [µM] | growth at 0.1 µM [5] [%] | growth at 1 µM [6] [%] | growth at 10 µM [7] [%] | growth at 100 µM [8] [%] | growth at 0.1 µM [9] [%] | growth at 1 µM [10] [%] | growth at 10 µM [11] [%] | growth at 100 µM [12] [%] | also measured |
| --- | --- | --- | --- | --- | --- | --- | --- | --- | --- | --- | --- | --- | --- | --- | --- | --- | --- | --- | --- | --- | --- |
| Cc1cc(C)n(C(=O)CNc2ccccc2Cl)n1 | 89.3 | > 100 | > 100 | 61.1 | > 100 | > 100 | > 100 | > 100 | > 100 | > 100 | > 100 | > 100 | 100 | 100 | 94.7 | 43.3 | 89.6 | 82.9 | 77.2 | 26.7 | growth at 0.1 µM [13]: 82.5%; growth at 1 µM [14]: 73.4%; growth at 10 µM [15]: 71.5%; growth at 100 µM [16]: 63.6%; growth at 0.1 µM [17]: 100%; growth at 1 µM [18]: 100%; growth at 10 µM [19]: 100%; growth at 100 µM [20]: 85.9%; activity at 0.25 h, 0.01 µM [21]: 101%; activity at 0.25 h, 0.1 µM [22]: 100%; activity at 0.25 h, 1 µM [23]: 99.9%; activity at 0.25 h, 10 µM [24]: 98.2%; activity at 0.25 h, 50 µM [25]: 104%; activity at 0.25 h, 100 µM [26]: 99.3%; inhibition (INH) [27]: Not Active |
| Cc1ccc(-c2cc3cc(F)ccc3[nH]2)cc1N | > 100 | > 100 | > 100 | > 100 | > 100 | > 100 | < 0.1 | > 100 | > 100 | > 100 | > 100 | > 100 | 100 | 100 | 99.8 | 96.8 | 100 | 73.1 | 70.9 | 67.1 | IC50 [28]: 0.13 µM; growth at 0.1 µM [13]: 100%; growth at 1 µM [14]: 100%; growth at 10 µM [15]: 98.9%; growth at 100 µM [16]: 90%; growth at 0.1 µM [17]: 47.8%; growth at 1 µM [18]: 40%; growth at 10 µM [19]: 30.6%; growth at 100 µM [20]: 23.1%; activity at 0.25 h, 0.01 µM [21]: 96.8%; activity at 0.25 h, 0.1 µM [22]: 52.6%; activity at 0.25 h, 1 µM [23]: 35.3%; activity at 0.25 h, 10 µM [24]: 12.8%; activity at 0.25 h, 50 µM [25]: 10.6%; activity at 0.25 h, 100 µM [26]: 8.54% |
